Measured values taken from patent US10336701B2, “Pyridin-2-one derivatives of formula (II) useful as EP3 receptor antagonists” (Janssen Pharmaceutica NV, priority 2017, dated 2019).

Molecular target: T1, EP3 receptor (Homo sapiens, UniProt P43115)
T1 construct: purchased Millipore HTS092M
T1 sequence (P43115 1-390): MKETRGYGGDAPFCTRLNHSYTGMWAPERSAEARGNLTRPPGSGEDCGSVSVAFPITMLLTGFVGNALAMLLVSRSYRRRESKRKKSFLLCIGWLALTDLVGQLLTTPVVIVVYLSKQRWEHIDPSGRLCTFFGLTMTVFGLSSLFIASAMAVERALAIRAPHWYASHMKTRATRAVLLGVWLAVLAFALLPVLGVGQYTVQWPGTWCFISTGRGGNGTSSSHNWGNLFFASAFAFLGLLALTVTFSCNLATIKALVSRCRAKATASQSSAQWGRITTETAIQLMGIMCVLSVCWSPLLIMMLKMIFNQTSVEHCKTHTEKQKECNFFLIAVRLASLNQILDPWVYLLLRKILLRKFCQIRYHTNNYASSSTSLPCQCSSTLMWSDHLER
Assay: [3H]-PGE2 binding assay (EP3 competition binding)
Conditions: read-out: [3H]-PGE2 Binding Ki
Method: EP3 competition binding was determined using the following materials and experimental conditions:
Beads=Perkin Elmer RPNQ0001
EP3 membrane=Millipore HTS092M
Membrane concentration=2 μg/well
Beads concentration=0.25 mg/well
[3H]-PGE2=2 nM; DMSO—0.1%
Binding buffer=50 mM Tris, 10 mM MgCl2, 1 mM • EDTA, PH 7.4.
The binding buffer was removed from refrigeration (@ 4° C.) and allowed to warm to room temperature. Test compound (@ stock concentration of […] in DMSO) was serial dilutes (1:3) with 100% DMSO using Echo plate. Diluted test compound (30 nL) was dispensed to the 384-well assay plate (using Echo 550 Labcyte System). To each well was then added assay buffer (5 μl) and each well was spun. Beads were weighed out, dissolved in assay buffer to a concentration of 0.25 mg/15 μl. Original membrane was diluted with assay buffer to a concentration of 2 μg/5 μl. […] To each test well were then added diluted [3H]-PGE2 (5 μl), diluted membrane (5 μl), and dissolved beads (15 μl). The plate was equilibrated at room temperature on a plate shaker for 2 hours and then read with a TOPCOUNT scintillation plate reader. Results were analyzed using a Prism program with non-linear regression, one-site fit for Ki.

Row | SMILES | Ki [nM]
1 | CC(C)C(/C=C1\OC(=O)NC1=O)c1ccc(-c2ccc3cccc(C#N)c3c2)[nH]c1=O (mixture of isomers) [compound 142, (Z)-7-(5-(1-(2,4-dioxooxazolidin-5-ylidene)-3-methylbutan-2-yl)-6-oxo-1,6-dihydropyridin-2-yl)-1-naphthonitrile] | 121
2 | CCn1ncc2c(F)cc(-c3ccc([C@@]45CCC[C@@H](C4)C(=O)O5)c(=O)[nH]3)cc21 (racemic) [compound 299] | 29
3 | CCn1ncc2c(F)cc(-c3[nH]c(=O)c(C(CC)(CC)c4ncco4)cc3F)cc21 [Compound #37, 6-(1-ethyl-4-fluoro-1H-indazol-6-yl)-5-fluoro-3-(3-(oxazol-2-yl)pentan-3-yl)pyridin-2(1H)-one] | 24
4 | CCn1ncc2c(F)cc(-c3ccc(C(CC)(CC)c4nnc(C(C)C)o4)c(=O)[nH]3)cc21 [Compound #38, 6-(1-ethyl-4-fluoro-1H-indazol-6-yl)-3-(3-(5-isopropyl-1,3,4-oxadiazol-2-yl)pentan-3-yl)pyridin-2(1H)-one] | 13
5 | CCn1ncc2c(F)cc(-c3ccc(C(CC)(CC)Cc4ncco4)c(=O)[nH]3)cc21 [Compound #41, 6-(1-ethyl-4-fluoro-1H-indazol-6-yl)-3-(3-(oxazol-2-ylmethyl)pentan-3-yl)pyridin-2(1H)-one] | 2
6 | CCn1ncc2c(F)cc(-c3ccc(C(CC)(CC)c4nnc(C(F)(F)F)o4)c(=O)[nH]3)cc21 [Compound #45, 6-(1-ethyl-4-fluoro-1H-indazol-6-yl)-3-(3-(5-(trifluoromethyl)-1,3,4-oxadiazol-2-yl)pentan-3-yl)py-ridine-2(1H)-one] | 59
7 | CCn1ncc2c(F)cc(-c3ccc(C(CC)(CC)c4nnc(N(C)C)s4)c(=O)[nH]3)cc21 [Compound #48, 3-(3-(5-(dimethylamino)-1,3,4-thiadiazol-2-yl)pentan-3-yl)-6-(1-ethyl-4-fluoro-1H-indazol-6-yl)pyridin-2(1H)-one] | 2
8 | CCn1ncc2c(F)cc(-c3ccc(C(CC)(CC)c4nnc(N)o4)c(=O)[nH]3)cc21 [Compound #51, 3-(3-(5-amino-1,3,4-oxadiazol-2-yl)pentan-3-yl)-6-(1-ethyl-4-fluoro-1H-indazol-6-yl)pyridin-2(1H)-one] | 2060
9 | CCn1ncc2c(F)cc(-c3ccc(C(CC)(CC)c4nnc(N)s4)c(=O)[nH]3)cc21 [Compound #52, 3-(3-(5-amino-1,3,4-thiadiazol-2-yl)pentan-3-yl)-6-(1-ethyl-4-fluoro-1H-indazol-6-yl)pyridin-2(1H)-one] | 19
10 | CCc1nnc(C(CC)(CC)c2ccc(-c3cc(F)c4cnn(CC)c4c3)[nH]c2=O)o1 [Compound #53, 3-(3-(5-ethyl-1,3,4-oxadiazol-2-yl)pentan-3-yl)-6-(1-ethyl-4-fluoro-1H-indazol-6-yl)pyridin-2(1H)-one] | 6
11 | CCn1ncc2c(F)cc(-c3ccc(C(CC)(CC)c4nnc(N(C)C)o4)c(=O)[nH]3)cc21 [Compound #57, 3-(3-(5-(dimethylamino)-1,3,4-oxadiazol-2-yl)pentan-3-yl)-6-(1-ethyl-4-fluoro-1H-indazol-6-yl)pyridin-2(1H)-one] | 6
12 | CCn1ncc2c(F)cc(-c3ccc(C(C(C)C)n4cnnn4)c(=O)[nH]3)cc21 (stereo not drawn) [Compound #171, 6-(1-ethyl-4-fluoro-1H-indazol-6-yl)-3-(2-methyl-1-(1H-tetrazol-1-yl)propyl)pyridin-2(1H)-one] | 29
13 | CCn1ncc2c(F)cc(-c3ccc(C(C(C)C)n4cnnc4)c(=O)[nH]3)cc21 (stereo not drawn) [Compound #172, 6-(1-ethyl-4-fluoro-1H-indazol-6-yl)-3-(2-methyl-1-(4H-1,2,4-triazol-4-yl)propyl)pyridin-2(1H)-one] | 25
14 | CCn1ncc2c(F)cc(-c3ccc(C(CC)(CC)c4nnc(C)o4)c(=O)[nH]3)cc21 [Compound #271, 6-(1-ethyl-4-fluoro-1H-indazol-6-yl)-3-(3-(5-methyl-1,3,4-oxadiazol-2-yl)pentan-3-yl)pyridin-2(1H)-one] | 6
15 | CCC(/C=C1/OC(=O)NC1=O)(CC)c1ccc(-c2ccc3c(F)cc(F)cc3c2)[nH]c1=O [compound 10, (E)-5-(2-(6-(5,7-difluoronaphthalen-2-yl)-2-oxo-1,2-dihydropyridin-3-yl)-2-ethylbutylidene)oxazolidine-2,4-dione] | 28
16 | CCn1ncc2c(F)cc(-c3ccc(C(CC)(CC)Cc4nnc[nH]4)c(=O)[nH]3)cc21 [compound 15, 3-(3-((4H-1,2,4-triazol-3-yl)methyl)pentan-3-yl)-6-(1-ethyl-4-fluoro-1H-indazol-6-yl)pyridin-2(1H)-one] | 7
17 | CCN1CCOc2c(F)cc(-c3ccc(C(CC)(CC)CC4CCNC4=O)c(=O)[nH]3)cc21 (stereo not drawn) [compound 17, 6-(4-ethyl-8-fluoro-3,4-dihydro-2H-benzo[b][1,4]oxazin-6-yl)-3-(3-((2-oxopyrrolidin-3-yl)methyl)pentan-3-yl)pyridin-2(1H)-one] | 14
18 | CCn1ncc2c(F)cc(-c3ccc(C(CC)(CC)Cc4ncc[nH]4)c(=O)[nH]3)cc21 [compound 20, 3-(3-((1H-imidazol-2-yl)methyl)pentan-3-yl)-6-(1-ethyl-4-fluoro-1H-indazol-6-yl)pyridin-2(1H)-one] | 11
19 | CCC(/C=C1\OC(=O)NC1=O)(CC)c1ccc(-c2ccc3cccc(C(F)(F)F)c3c2)[nH]c1=O [compound 23, 5-(2-ethyl-2-(2-oxo-6-(8-(trifluoromethyl)naphthalen-2-yl)-1,2-dihydropyridin-3-yl)butylidene)oxazolidine-2,4-dione] | 228
20 | CCN1CCOc2c(F)cc(-c3ccc(C(/C=C4\CCNC4=O)(CC)CC)c(=O)[nH]3)cc21 [compound 25, (E)-6-(4-ethyl-8-fluoro-3,4-dihydro-2H-benzo[b][1,4]oxazin-6-yl)-3-(3-((2-oxopyrrolidin-3-ylidene)methyl)pentan-3-yl)pyridin-2(1H)-one] | > 10000
21 | CCC(/C=C1/OC(=O)NC1=O)(CC)c1ccc(-c2ccc3cc(F)cc(F)c3c2)[nH]c1=O [compound 32, (E)-5-(2-(6-(6,8-difluoronaphthalen-2-yl)-2-oxo-1,2-dihydropyridin-3-yl)-2-ethylbutylidene)oxazolidine-2,4-dione] | 292
22 | CCC(CC)(c1nnc[nH]1)c1ccc(-c2ccc3c(F)cc(F)cc3c2)[nH]c1=O [compound 33, 3-(3-(4H-1,2,4-triazol-3-yl)pentan-3-yl)-6-(5,7-difluoronaphthalen-2-yl)pyridin-2(1H)-one] | 735
23 | CCn1ncc2c(F)cc(-c3[nH]c(=O)c(C(CC)(CC)c4nnc[nH]4)cc3F)cc21 [compound 36, 3-(3-(4H-1,2,4-triazol-3-yl)pentan-3-yl)-6-(1-ethyl-4-fluoro-1H-indazol-6-yl)-5-fluoropyridin-2(1H)-one] | 195
24 | CCn1ncc2c(F)cc(-c3[nH]c(=O)c(C(CC)(CC)CC4=CCNC4=O)cc3F)cc21 [compound 46, 6-(1-ethyl-4-fluoro-1H-indazol-6-yl)-5-fluoro-3-(3-((2-oxo-2,5-dihydro-1H-pyrrol-3-yl)methyl)pentan-3-yl)pyridin-2(1H)-one] | 452
25 | CCn1ncc2c(F)cc(-c3[nH]c(=O)c(C(/C=C4\CCNC4=O)(CC)CC)cc3F)cc21 [compound 47, (E)-6-(1-ethyl-4-fluoro-1H-indazol-6-yl)-5-fluoro-3-(3-((2-oxopyrrolidin-3-ylidene)methyl)pentan-3-yl)pyridin-2(1H)-one] | 25
26 | CCC(CC)(c1ncc[nH]1)c1ccc(-c2ccc3cc(F)cc(F)c3c2)[nH]c1=O [compound 50, 3-(3-(1H-imidazol-2-yl)pentan-3-yl)-6-(6,8-difluoronaphthalen-2-yl)pyridin-2(1H)-one] | 1080
27 | CCn1ncc2c(F)cc(-c3ccc(C(CC)(CC)CC4CCCNC4=O)c(=O)[nH]3)cc21 (stereo not drawn) [compound 58, 6-(1-ethyl-4-fluoro-1H-indazol-6-yl)-3-(3-((2-oxopiperidin-3-yl)methyl)pentan-3-yl)pyridin-2(1H)-one] | 7
28 | CC(C)c1cccc2ccc(-c3ccc(C(/C=C4\OC(=O)NC4=O)C(C)C)c(=O)[nH]3)cc12 (stereo not drawn) [compound 135, (Z)-5-(2-(6-(8-isopropylnaphthalen-2-yl)-2-oxo-1,2-dihydropyridin-3-yl)-3-methylbutylidene)oxazolidine-2,4-dione] | 85
29 | CCn1ncc2c(F)cc(-c3ccc(C(CC4(C)CCNC4=O)C(C)C)c(=O)[nH]3)cc21 (stereo not drawn) [compound 146, 6-(1-ethyl-4-fluoro-1H-indazol-6-yl)-3-(3-methyl-1-(3-methyl-2-oxopyrrolidin-3-yl)butan-2-yl)pyridin-2(1H)-one] | 6
30 | CCn1ncc2c(F)cc(-c3ccc(C(CC4CCNC4=O)C(C)C)c(=O)[nH]3)cc21 (stereo not drawn) [compound 147, Syn-6-(1-ethyl-4-fluoro-1H-indazol-6-yl)-3-(3-methyl-1-(2-oxopyrrolidin-3-yl)butan-2-yl)pyridin-2(1H)-one] | 632
